Data reported in PubChem BioAssay (NCI).
“And” between values parts separate entries of the source, which are not always exact repeats. Equal entries are not always repeated.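 Tested at 5 concentrations; 48 h exposure; 96-well plates; endpoints linearly interpolated, else capped at highest concentration. Abbreviation: GI50, concentration required for 50% inhibition of growth. Definition used: TGI = concentration required for complete inhibition of growth.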

How the values were obtained:
Experiment in all cases: inhibition of tumour cell growth, NCI panel, 48 h
[1] = test system: COLO 205 colon
[2] = test system: EKVX NSCLC
[3] = test system: HCC-2998 colon
[4] = test system: HCT-116 colon
[5] = test system: HL-60(TB) leukemia
[6] = test system: KM12 colon
[7] = test system: OVCAR-5 ovarian
[8] = test system: UACC-62 melanoma
[9] = test system: MDA-MB-231 breast
[10] = test system: PC-3 prostate

Row | Structure (SMILES) | TGI [1] [µM] | TGI [2] [µM] | TGI [3] [µM] | TGI [4] [µM] | TGI [5] | TGI [6] | TGI [7] [µM] | TGI [8] [µM] | TGI [9] [µM] | TGI [10] [µM] | GI50 [1] [µM] | GI50 [3] [µM] | GI50 [4] [µM] | GI50 [6] [µM] | GI50 [9] [µM] | GI50 [7] [µM] | GI50 [10] [µM] | GI50 [8] [µM] | GI50 [5] [µM] | GI50 [2] [µM]
1 | Cc1ccc(C(=O)C#Cc2c[nH]c(=O)[nH]c2=O)cc1 | 44.3 | 31.4 | 25.3 | 18.5 | 35.1 µM | 28.2 µM | 33 | 21.8 | – | – | – | – | – | – | – | – | – | – | – | –
2 | CN(C)C1=NC2=S(SC(Nc3ccccc3)=N2)S1 (configuration not stated) | – | 38.5 | > 100 | > 100 | > 100 µM | > 100 µM | > 100 | > 100 | – | – | – | – | – | – | – | – | – | – | – | –
3 | COC(=O)C1=C(c2ccc3c(c2)OCO3)OC(c2ccc3c(c2)OCO3)C1 (configuration not stated) | > 100 | > 100 | > 100 | > 100 | > 100 µM | > 100 µM | > 100 | > 100 | – | – | – | – | – | – | – | – | – | – | – | –
4 | O=C(O)c1ccccc1-c1ccccc1C(=O)Nc1ccc2c(c1)[nH]c(=O)c1ccccc12 | > 100 | > 100 | – | > 100 | > 100 µM | > 100 µM | > 100 | > 100 | > 100 | > 100 | – | – | – | – | – | – | – | – | – | –
5 | COc1ccccc1C(N)c1ccccc1 (configuration not stated) | > 100 | > 100 | > 100 | > 100 | > 100 µM | > 100 µM | > 100 | > 100 | – | – | – | – | – | – | – | – | – | – | – | –
6 | COc1cccc(Cn2c(-c3nonc3NC(C)=O)nc3ccccc32)c1 | > 100 | – | > 100 | > 100 | – | > 100 µM | > 100 | > 100 | > 100 | > 100 | 3.45 | 5.83 | 4.94 | 4 | 3.62 | 4.04 | 2.83 | 3.37 | – | –
7 | N#C/C(=C1C=C/C(=N\O)C(Cl)=C\1)c1ccccc1 | 24.4 | – | 15.8 | 11.4 | 5.67 µM | 10.4 µM | 13.7 | 18.1 | 6.7 | 11.7 | 7.52 | 4.27 | 0.382 | 0.772 | 2.26 | 3.71 | 0.688 | 2.8 | 2.19 | –
8 | N#CCCSC(=S)C1CCCC1=N (configuration not stated) | > 100 | > 100 | – | > 100 | > 100 µM | > 100 µM | > 100 | > 100 | > 100 | > 100 | – | – | – | – | – | – | – | – | – | –
9 | Cc1cc(C)c2nc3nc(C)cc(C)c3c(N)c2c1 | 11.8 | 43 | 22.5 | 15 | 12.9 µM | 24 µM | 29.5 | 18.9 | 28.6 | – | 2.78 | 9.61 | 3.12 | 5.52 | 5.17 | 4.3 | – | 4.83 | 2.74 | 4.76
10 | NC(=O)Nc1c([N+](=O)[O-])cc(C(F)(F)F)cc1[N+](=O)[O-] | 98.1 | > 100 | – | > 100 | > 100 µM | > 100 µM | > 100 | > 100 | – | – | – | – | – | – | – | – | – | – | – | –
11 | O=C(O)c1cccc2cccc(C(=O)O)c12.[Hg] | 14.5 | > 100 | 25.3 | 29.3 | 42.2 µM | 32.4 µM | 33.5 | > 100 | – | – | 3.1 | 12 | 15.9 | 18.3 | – | 19.4 | – | > 100 | 19.3 | > 100
12 | COc1ccc(C(=O)CC(=O)C(=O)Nc2ccc(C)c(C)c2)cc1 | > 82.4 | > 100 | > 100 | > 64.4 | > 64.3 µM | > 100 µM | > 93.7 | > 100 | – | – | – | – | – | – | – | – | – | – | – | –
13 | Cc1ccc(NC2=C(Cl)C(=O)N(Cc3ccccc3)C2=O)cc1Cl | 22.1 | 28.9 | – | 12.5 | – | 26.6 µM | 43.3 | 16.8 | – | 8.84 | 7.03 | – | 3.01 | 13.7 | – | 15.7 | 1.99 | 3.85 | – | 14.1
14 | O=C(CN1C(=O)S/C(=C\C(Cl)=C\c2ccccc2)C1=O)NCCc1ccc(O)cc1 | 5.68 | 4.74 | 3.33 | 3.1 | – | 3.43 µM | 5.66 | 3.96 | 6.52 | 5.12 | 2.31 | 1.85 | 1.42 | 1.7 | 2.09 | 2.31 | 1.96 | 1.7 | – | 2.04
15 | NCCCNCCSSC/C=C\CSSCCNCCCN | > 100 | > 100 | > 100 | – | 46.4 µM and 39.1 µM | 38.7 µM and 36.3 µM | > 100 | > 100 | – | – | – | – | – | – | – | – | – | – | – | –
16 | NC(=O)CCC(NC(=O)Cc1ccccc1)C(=O)O (configuration not stated) (tested in a mixture with another compound) | > 8130 | > 8130 | > 8130 | > 8130 | > 8130 µM | > 8130 µM | > 8130 | > 8130 | – | – | – | – | – | – | – | – | – | – | – | –
17 | O=C1NC(c2c(Cl)cccc2Cl)Nc2ccccc21 (configuration not stated) | > 100 | > 100 | – | > 100 | 46.9 µM | 43.7 µM | > 100 | > 100 | > 100 | > 100 | – | – | – | – | – | – | – | – | – | –
18 | CCN(CC)CCCCNc1ncc2cc(-c3cc(OC)cc(OC)c3)c(NC(=O)NC(C)(C)C)nc2n1 | 22.1 | – | 26 | 16.3 | 4.8 µM | 23 µM | 31.4 | 15.1 | 17 | 26 | 8.08 | 12.7 | 4.13 | 9.65 | 5.89 | 15.5 | 7.3 | 4.2 | 1.99 | –
19 | COC(=O)C(Cc1ccccc1)NC(=O)Cn1ccnc1[N+](=O)[O-] (configuration not stated) | > 100 | > 100 | – | – | > 100 µM | > 100 µM | > 100 | > 100 | – | – | – | – | – | – | – | – | – | – | – | –
